Assay results: patent US20040034067A1, “Novel method of treatment” (priority 1999, published 2004)

Assays:
Type in all cases: cell-based
PPARgamma mRNA = PPARgamma mRNA expression during human neutrophil attachment to culture dishes; conditions: data taken at 1 and 4 hours; human neutrophils (FIG. 1A)
Gelatinase B mRNA = Gelatinase B mRNA expression in attached human neutrophils; conditions: 1 μM of compound; 4 hours after neutrophil attachment; human neutrophils (FIG. 1B)
Description: (FIG. 1B): That the increase in Gelatinase B mRNA expression observed 4 hours after neutrophil attachment was reduced by treatment with 1 μM of Compound (I). Time zero (T0) refers to expression in naive human neutrophils prior to attachment.

MMP-9 release = assay: Inhibition of MMP-9 release from human neutrophils (human MMP-9 ELISA); conditions: Neutrophil, RPMI 1640 plus 1% BSA, 4 hours, 4 individuals, 4-parameter logistic curve fit
Description: FIG. 2: Inhibition of MMP-9 release.by Compound (I)
Neutrophils were isolated by countercurrent centrifugal elutriation to a purity of at least 98% and were maintained in RPMI 1640 plus 1% BSA. Cells were cultured in 48 well plates and attached to the wells within 1 hour of plating. Compound (I) (referred to as“BRL49653” in FIG. 2) was included from the beginning of the experiment. After 4 hours the media was removed and a human MMP-9 ELISA assay (Amersham) was performed. Data (from 4 different individuals) were not suitable for pooling directly, so for the purposes of the figure they were normalised to percentage of no compound control. Asterisks denote p<0.05 using a paired Student's t-test performed on the raw data prior to normalisation.

Row | Compound | PPARgamma mRNA during human neutrophil attachment (PPARgamma mRNA) | increase in Gelatinase B mRNA expression after neutrophil attachment (Gelatinase B mRNA) | IC50 (MMP-9 release)
1 | GM-CSF: GM-CSF, treatment that further enhanced PPARgamma mRNA in attached human neutrophils | further enhanced | – | –
2 | CN(CCOc1ccc(CC2SC(=O)NC2=O)cc1)c1ccccn1 (stereo not drawn) [Compound (I), 5-[4-[2-(N-methyl-N-(2-pyridyl)amino)ethoxy]benzyl]thiazolidine-2,4-dione] | – | reduced | 10.6 nM
